Results as given in the CheMixHub viscosity set.
± gives the uncertainty stated by the source.

Assay: xn = mol fraction of the nth substance listed

CCOC(=O)c1ccccc1 + CCCCCCCCCC
101 kPa
Conditions	viscosity [mPa·s]
298.15 K, x2 = 0.0396	1.837 ± 0.057
298.15 K, x2 = 0.1121	1.655 ± 0.052
298.15 K, x2 = 0.151	1.566 ± 0.049
298.15 K, x2 = 0.2285	1.42 ± 0.044
298.15 K, x2 = 0.2637	1.355 ± 0.042
298.15 K, x2 = 0.3109	1.289 ± 0.04
298.15 K, x2 = 0.4026	1.176 ± 0.037
298.15 K, x2 = 0.4449	1.136 ± 0.036
298.15 K, x2 = 0.4949	1.088 ± 0.034
298.15 K, x2 = 0.5326	1.056 ± 0.033
298.15 K, x2 = 0.5928	1.011 ± 0.032
298.15 K, x2 = 0.6401	0.982 ± 0.031
298.15 K, x2 = 0.6988	0.947 ± 0.03
298.15 K, x2 = 0.812	0.894 ± 0.028
298.15 K, x2 = 0.8703	0.875 ± 0.028
298.15 K, x2 = 0.9276	0.86 ± 0.027
308.15 K, x2 = 0.0574	1.521 ± 0.047
308.15 K, x2 = 0.0864	1.466 ± 0.046
308.15 K, x2 = 0.1337	1.383 ± 0.043
308.15 K, x2 = 0.1677	1.329 ± 0.042
308.15 K, x2 = 0.1997	1.279 ± 0.04
308.15 K, x2 = 0.2471	1.215 ± 0.038
308.15 K, x2 = 0.2846	1.165 ± 0.036
308.15 K, x2 = 0.3332	1.109 ± 0.035
308.15 K, x2 = 0.3766	1.065 ± 0.033
308.15 K, x2 = 0.4181	1.024 ± 0.032
308.15 K, x2 = 0.4647	0.985 ± 0.031
308.15 K, x2 = 0.5144	0.947 ± 0.03
308.15 K, x2 = 0.5655	0.913 ± 0.029
308.15 K, x2 = 0.6123	0.885 ± 0.028
308.15 K, x2 = 0.6663	0.854 ± 0.027
308.15 K, x2 = 0.7228	0.828 ± 0.026
308.15 K, x2 = 0.7857	0.803 ± 0.025
308.15 K, x2 = 0.8405	0.784 ± 0.025
308.15 K, x2 = 0.9073	0.764 ± 0.024
318.15 K, x2 = 0.0323	1.298 ± 0.041
318.15 K, x2 = 0.07	1.235 ± 0.039
318.15 K, x2 = 0.1012	1.188 ± 0.037
318.15 K, x2 = 0.1446	1.128 ± 0.035
318.15 K, x2 = 0.1842	1.078 ± 0.034
318.15 K, x2 = 0.2269	1.027 ± 0.032
318.15 K, x2 = 0.2679	0.984 ± 0.031
318.15 K, x2 = 0.3143	0.939 ± 0.029
318.15 K, x2 = 0.3561	0.903 ± 0.028
318.15 K, x2 = 0.4045	0.866 ± 0.027
318.15 K, x2 = 0.4499	0.835 ± 0.026
318.15 K, x2 = 0.5021	0.803 ± 0.025
318.15 K, x2 = 0.5496	0.777 ± 0.025
318.15 K, x2 = 0.6035	0.752 ± 0.024
318.15 K, x2 = 0.6545	0.73 ± 0.023
318.15 K, x2 = 0.7126	0.708 ± 0.022
318.15 K, x2 = 0.7674	0.69 ± 0.022
318.15 K, x2 = 0.8289	0.674 ± 0.021
318.15 K, x2 = 0.8862	0.661 ± 0.021

CC(C)CC1CCCCC1 + CCCCCCCCCCCC
viscosity [mPa·s], 102 kPa
Conditions	x1 = 0.1	x1 = 0.2011	x1 = 0.3007	x1 = 0.4005	x1 = 0.4977	x1 = 0.5997	x1 = 0.6989	x1 = 0.7996
293.15 K	1.46 ± 0.02	1.42 ± 0.02	1.39 ± 0.02	1.35 ± 0.02	1.32 ± 0.02	1.29 ± 0.02	1.25 ± 0.02	1.22 ± 0.02
303.15 K	1.23 ± 0.02	1.2 ± 0.02	1.17 ± 0.02	1.14 ± 0.02	1.12 ± 0.02	1.09 ± 0.02	1.07 ± 0.02	1.04 ± 0.02
313.15 K	1.05 ± 0.02	1.02 ± 0.02	1 ± 0.02	0.982 ± 0.021	0.965 ± 0.021	0.942 ± 0.021	0.922 ± 0.021	0.903 ± 0.021
323.15 K	0.902 ± 0.021	0.889 ± 0.021	0.874 ± 0.021	0.856 ± 0.021	0.842 ± 0.021	0.824 ± 0.021	0.809 ± 0.021	0.793 ± 0.021

CC1CCCCC1 + CCCCCCCCCCCC
viscosity [mPa·s], 101 kPa
Conditions	x1 = 0.1004	x1 = 0.2017	x1 = 0.2968	x1 = 0.406	x1 = 0.5059	x1 = 0.6011	x1 = 0.6993	x1 = 0.7989	x1 = 0.898
298.15 K	1.303 ± 0.022	–	–	1.084 ± 0.018	1.014 ± 0.017	0.948 ± 0.016	0.88 ± 0.015	0.811 ± 0.014	0.744 ± 0.013
303.15 K	1.186 ± 0.02	1.124 ± 0.019	1.067 ± 0.018	1.004 ± 0.017	0.94 ± 0.016	–	0.821 ± 0.014	0.756 ± 0.013	0.694 ± 0.012
308.15 K	1.096 ± 0.018	1.037 ± 0.018	0.981 ± 0.017	0.919 ± 0.016	0.862 ± 0.015	0.809 ± 0.014	0.755 ± 0.013	0.701 ± 0.012	0.647 ± 0.012

CCCCCCCCCl + CCCCCCCCCCCC
298 K, 101.3 kPa
Conditions	viscosity [mPa·s]
x2 = 0.1064	1.143 ± 0.03
x2 = 0.2068	1.151 ± 0.03
x2 = 0.308	1.177 ± 0.031
x2 = 0.4061	1.185 ± 0.031
x2 = 0.5066	1.218 ± 0.032
x2 = 0.6038	1.232 ± 0.032
x2 = 0.6927	1.262 ± 0.033
x2 = 0.7984	1.288 ± 0.034
x2 = 0.8945	1.317 ± 0.035

CCCCCl + CCCCCCCCCCCC
298 K, 101.3 kPa
Conditions	viscosity [mPa·s]
x2 = 0.1032	0.5072 ± 0.013
x2 = 0.202	0.5794 ± 0.015
x2 = 0.2999	0.6598 ± 0.017
x2 = 0.3986	0.7447 ± 0.02
x2 = 0.4981	0.8232 ± 0.022
x2 = 0.6017	0.9282 ± 0.024
x2 = 0.7015	1.034 ± 0.027
x2 = 0.7981	1.13 ± 0.03
x2 = 0.8948	1.22 ± 0.032
